From the supplement of paper PMC10307832

Legend:
Experiment in all cases: relative viability (nuclei count vs DMSO), 5 days (fraction); higher = more cells survive
201T = tested on: 201T
Summary of the method: (§1)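 For relative viability, nuclei counts in treated wells were divided by those in vehicle wells. Lung cancer cell lines had been pin-tool dosed in 1536-well plates the day after seeding and cultured for 5 days, then fixed and stained in one step (final 0.05% Triton X-100, 1% formaldehyde, 1 ug/ml Hoechst) and imaged at 4×. Doses were one drug alone or a fixed anchor-drug dose plus five library-drug doses (not always all listed) in √10 steps, and values are duplicate-plate medians.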

A-427 = tested on: A-427
Summary of the method: as §1

COR-L 105 = tested on: COR-L 105
Summary of the method: as §1

COR-L23 = tested on: COR-L23
Summary of the method: as §1

EKVX = tested on: EKVX
Summary of the method: as §1

EMC-BAC-2 = tested on: EMC-BAC-2
Summary of the method: as §1

EPLC-272H = tested on: EPLC-272H
Summary of the method: as §1

HCC-44 = tested on: HCC-44
Summary of the method: as §1

HCC-827 = tested on: HCC-827
Summary of the method: as §1

LCLC-103H = tested on: LCLC-103H
Summary of the method: as §1

LU99A = tested on: LU99A
Summary of the method: as §1

NCI-H1437 = tested on: NCI-H1437
Summary of the method: as §1

NCI-H1666 = tested on: NCI-H1666
Summary of the method: as §1

NCI-H1792 = tested on: NCI-H1792
Summary of the method: as §1

NCI-H2009 = tested on: NCI-H2009
Summary of the method: as §1

NCI-H2023 = tested on: NCI-H2023
Summary of the method: as §1

NCI-H2087 = tested on: NCI-H2087
Summary of the method: as §1

NCI-H3122 = tested on: NCI-H3122
Summary of the method: as §1

NCI-H520 = tested on: NCI-H520
Summary of the method: as §1

PC-14 = tested on: PC-14
Summary of the method: as §1

RERF-LC-KJ = tested on: RERF-LC-KJ
Summary of the method: as §1

SK-LU-1 = tested on: SK-LU-1
Summary of the method: as §1

SW 1573 = tested on: SW 1573
Summary of the method: as §1

SW 900 = tested on: SW 900
Summary of the method: as §1

Work on Nc1cccc2c1CN(C1CCC(=O)NC1=O)C2=O (configuration not stated) [Lenalidomide] + Nc1nc2[nH]cc(CCc3ccc(C(=O)N[C@@H](CCC(=O)O)C(=O)O)cc3)c2c(=O)[nH]1 [Pemetrexed] (partner 0.2 µM) yielded a relative viability (201T; first compound 0.253 µM) of 0.33, a relative viability (201T; first compound 0.8 µM) of 0.325 and a relative viability (201T; first compound 2.53 µM) of 0.322. It also gave a relative viability (201T; first compound 8 µM) of 0.287, a relative viability (A-427; first compound 0.253 µM) of 0.989 and a relative viability (A-427; first compound 0.8 µM) of 0.931. It also gave a relative viability (A-427; first compound 2.53 µM) of 1.05, a relative viability (A-427; first compound 8 µM) of 0.993 and a relative viability (COR-L 105; first compound 0.253 µM) of 1.21. For the same compound, the relative viability (COR-L 105; first compound 0.8 µM) was 1.16, the relative viability (COR-L 105; first compound 2.53 µM) was 1.22 and the relative viability (COR-L 105; first compound 8 µM) was 1.2. It also gave a relative viability (COR-L23; first compound 0.253 µM) of 0.192, a relative viability (COR-L23; first compound 0.8 µM) of 0.191 and a relative viability (COR-L23; first compound 2.53 µM) of 0.191. It also gave a relative viability (COR-L23; first compound 8 µM) of 0.189, a relative viability (EKVX; first compound 0.253 µM) of 0.333 and a relative viability (EKVX; first compound 0.8 µM) of 0.33. It also gave a relative viability (EKVX; first compound 2.53 µM) of 0.466, a relative viability (EKVX; first compound 8 µM) of 0.396 and a relative viability (EMC-BAC-2; first compound 0.253 µM) of 0.437. For the same compound, the relative viability (EMC-BAC-2; first compound 0.8 µM) was 0.392, the relative viability (EMC-BAC-2; first compound 2.53 µM) was 0.451 and the relative viability (EMC-BAC-2; first compound 8 µM) was 0.463. It also gave a relative viability (EPLC-272H; first compound 0.253 µM) of 0.328, a relative viability (EPLC-272H; first compound 2.53 µM) of 0.356 and a relative viability (EPLC-272H; first compound 8 µM) of 0.359. It also gave a relative viability (HCC-44; first compound 0.253 µM) of 0.616, a relative viability (HCC-44; first compound 0.8 µM) of 0.638 and a relative viability (HCC-44; first compound 2.53 µM) of 0.631. It also gave a relative viability (HCC-44; first compound 8 µM) of 0.762, a relative viability (HCC-827; first compound 0.253 µM) of 0.276 and a relative viability (HCC-827; first compound 0.8 µM) of 0.269. For the same compound, the relative viability (HCC-827; first compound 2.53 µM) was 0.252, the relative viability (HCC-827; first compound 8 µM) was 0.304 and the relative viability (LCLC-103H; first compound 0.253 µM) was 0.488. For the same compound, the relative viability (LCLC-103H; first compound 0.8 µM) was 0.476, the relative viability (LCLC-103H; first compound 2.53 µM) was 0.474 and the relative viability (LCLC-103H; first compound 8 µM) was 0.458. The relative viability (LU99A; first compound 0.253 µM) was 0.188, the relative viability (LU99A; first compound 0.8 µM) was 0.183 and the relative viability (LU99A; first compound 2.53 µM) was 0.169. The relative viability (LU99A; first compound 8 µM) was 0.169, the relative viability (NCI-H1437; first compound 0.253 µM) was 0.294 and the relative viability (NCI-H1437; first compound 0.8 µM) was 0.33. The relative viability (NCI-H1437; first compound 2.53 µM) was 0.327, the relative viability (NCI-H1437; first compound 8 µM) was 0.323 and the relative viability (NCI-H1666; first compound 0.253 µM) was 0.801. The relative viability (NCI-H1666; first compound 0.8 µM) was 0.878, the relative viability (NCI-H1666; first compound 2.53 µM) was 0.873 and the relative viability (NCI-H1666; first compound 8 µM) was 0.826. The relative viability (NCI-H1792; first compound 0.253 µM) was 1.12, the relative viability (NCI-H1792; first compound 0.8 µM) was 0.629 and the relative viability (NCI-H1792; first compound 2.53 µM) was 1.08. For the same compound, the relative viability (NCI-H1792; first compound 8 µM) was 0.336, the relative viability (NCI-H2009; first compound 0.253 µM) was 0.988 and the relative viability (NCI-H2009; first compound 0.8 µM) was 1.05. The relative viability (NCI-H2009; first compound 2.53 µM) was 1, the relative viability (NCI-H2009; first compound 8 µM) was 1.08 and the relative viability (NCI-H2023; first compound 0.253 µM) was 0.259. The relative viability (NCI-H2023; first compound 0.8 µM) was 0.235, the relative viability (NCI-H2023; first compound 2.53 µM) was 0.246 and the relative viability (NCI-H2023; first compound 8 µM) was 0.256. For the same compound, the relative viability (NCI-H2087; first compound 0.253 µM) was 0.65, the relative viability (NCI-H2087; first compound 2.53 µM) was 0.642 and the relative viability (NCI-H2087; first compound 8 µM) was 0.671. For the same compound, the relative viability (NCI-H3122; first compound 0.253 µM) was 0.205, the relative viability (NCI-H3122; first compound 0.8 µM) was 0.202 and the relative viability (NCI-H3122; first compound 2.53 µM) was 0.193. The relative viability (NCI-H3122; first compound 8 µM) was 0.23, the relative viability (NCI-H520; first compound 0.253 µM) was 0.722 and the relative viability (NCI-H520; first compound 0.8 µM) was 0.607. The relative viability (NCI-H520; first compound 2.53 µM) was 0.79, the relative viability (NCI-H520; first compound 8 µM) was 0.689 and the relative viability (PC-14; first compound 0.253 µM) was 0.126. The relative viability (PC-14; first compound 0.8 µM) was 0.151, the relative viability (PC-14; first compound 2.53 µM) was 0.139 and the relative viability (PC-14; first compound 8 µM) was 0.16. For the same compound, the relative viability (RERF-LC-KJ; first compound 0.253 µM) was 0.542, the relative viability (RERF-LC-KJ; first compound 0.8 µM) was 0.412 and the relative viability (RERF-LC-KJ; first compound 2.53 µM) was 0.503. It also gave a relative viability (RERF-LC-KJ; first compound 8 µM) of 0.503, a relative viability (SK-LU-1; first compound 0.253 µM) of 1.04 and a relative viability (SK-LU-1; first compound 0.8 µM) of 1.07. For the same compound, the relative viability (SK-LU-1; first compound 2.53 µM) was 1.12, the relative viability (SK-LU-1; first compound 8 µM) was 1.11 and the relative viability (SW 1573; first compound 0.253 µM) was 0.751. The relative viability (SW 1573; first compound 0.8 µM) was 0.856, the relative viability (SW 1573; first compound 2.53 µM) was 0.98 and the relative viability (SW 1573; first compound 8 µM) was 0.812. The relative viability (SW 900; first compound 2.53 µM) was 0.509 and the relative viability (SW 900; first compound 8 µM) was 0.477.
